Assay results published in paper PMC11331526 (2024).

Tested on: d(G5C5)2 (G5C5) (DNA, duplex) GGGGGCCCCC
Assay: emission titration, Bard fit
Conditions: 50 mM potassium phosphate, pH 7, 298 K, table title per base pair, fit per nucleotide

SMILES	Kb (site size 3.4, text prints 10^5)	Kb (site size 2.6, text error ±0.6)
[Ru+2].c1ccc2c(c1)ccc1nc3c4cccnc4c4ncccc4c3nc12.c1cnc2c(ccc3nccnc32)n1.c1cnc2c(ccc3nccnc32)n1	9.4(±1.2) × 10^6 M^-1	–
[Ru+2].c1ccc2cc3nc4c5cccnc5c5ncccc5c4nc3cc2c1.c1cnc2c(ccc3nccnc32)n1.c1cnc2c(ccc3nccnc32)n1	–	2.5(±0.4) × 10^6 M^-1
